The source of these data is publication PMC3658134 (Biochemistry, 2011).

Common to all, as to format: biochemical
One assay addresses T1, wild-type TGR (SmTGR) (Schistosoma mansoni, UniProt Q962Y6).
T1 sequence (Q962Y6 1-598): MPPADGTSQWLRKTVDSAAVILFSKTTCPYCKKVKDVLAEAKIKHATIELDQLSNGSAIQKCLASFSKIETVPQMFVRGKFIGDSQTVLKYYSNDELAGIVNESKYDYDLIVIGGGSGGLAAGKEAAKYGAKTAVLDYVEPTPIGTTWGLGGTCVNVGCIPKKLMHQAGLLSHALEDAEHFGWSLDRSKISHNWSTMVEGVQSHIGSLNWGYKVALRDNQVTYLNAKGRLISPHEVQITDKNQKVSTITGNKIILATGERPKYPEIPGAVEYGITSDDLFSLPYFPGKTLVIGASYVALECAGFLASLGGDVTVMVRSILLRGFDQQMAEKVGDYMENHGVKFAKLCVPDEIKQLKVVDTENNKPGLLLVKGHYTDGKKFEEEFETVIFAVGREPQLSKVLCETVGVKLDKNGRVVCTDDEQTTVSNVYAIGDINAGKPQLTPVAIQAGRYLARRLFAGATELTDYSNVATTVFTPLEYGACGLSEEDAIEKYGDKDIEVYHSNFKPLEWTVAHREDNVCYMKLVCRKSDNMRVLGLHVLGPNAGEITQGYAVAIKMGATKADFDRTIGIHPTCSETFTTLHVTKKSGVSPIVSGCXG
Kind of assay: Substrate specificity, NADPH consumption, wild-type TGR.

For assay [1], the target named is T2, Sec597Cys SmTGR (Schistosoma mansoni, UniProt Q962Y6). Kind of assay: Substrate specificity, NADPH consumption, Sec597Cys. As to conditions: 100 μM NADPH.
Assay [2] concerns the target T3, WT SmTGR (Schistosoma mansoni, UniProt Q962Y6). Kind of assay: Inhibition of TrxR activity of WT SmTGR.
Assay [3] has as its target T3, WT SmTGR. Briefly: Inhibition of DTNB activity of WT SmTGR.
Assay [4] concerns the target T3, WT SmTGR. Briefly: Inhibition of GR activity of WT SmTGR.
Assay [5] concerns the target T2, Sec597Cys SmTGR. Briefly: Inhibition of TrxR activity of Sec597Cys.
Assay [6] addresses T2, Sec597Cys SmTGR. Briefly: Inhibition of GR activity of Sec597Cys.
The target of assay [7] is T2, Sec597Cys SmTGR. Kind of assay: Inhibition of DTNB activity of Sec597Cys.
Setting [8] is: WT enzyme 20 or 100 nM, 100 μM NADPH, ND = undetectable activity.
Setting [9] is: Sec597Cys 100 or 150 nM, ND = undetectable activity.

Read-outs that look alike come from different tables or passages of the source.

For the compound `O=[Se](O)O` [NaSeO3, sodium selenite], the Km (usually the concentration of substrate that gives half-maximal velocity) amounted to 0.0087 ± 0.0025 mM on wild-type TGR (SmTGR) (WT enzyme 100 nM, 100 μM NADPH) and 0.0173 ± 0.0044 mM on Sec597Cys SmTGR [1] (Sec597Cys 100 nM).
Turning to `CC(C)(C)OO` [t-Butyl-OOH, tert-butyl hydroperoxide], the Km on wild-type TGR (SmTGR) (setting [8]) is 75 ± 10 mM; on Sec597Cys SmTGR [1] (setting [9]), 53 ± 5 mM.
Consider `N#Cc1c(-c2ccccc2)no[n+]1[O-]` [Fx, 4-phenyl-1,2,5-oxadiazole-3-carbonitrile-2-oxide], for which the IC50 (usually the point on the concentration scale where inhibition reaches its midpoint) against WT SmTGR [2] amounted to 5.4 µM; against WT SmTGR [3] it was 3 µM; on WT SmTGR [4], 3.2 µM; against Sec597Cys SmTGR [5] it was 2.1 µM; at Sec597Cys SmTGR [6], 2.5 µM; against Sec597Cys SmTGR [7], 6 µM.
With `O=C1NC(=O)C(=O)C(=O)N1` [Alloxan, alloxan], on Sec597Cys SmTGR [1] (setting [9]), the Km came to 0.88 ± 0.07 mM.
Take `O=C(O)CCCC[C@@H]1CCSS1` (racemic) [Lipoic acid, lipoic acid]: the Km was determined as 2.9 ± 0.7 mM at wild-type TGR (SmTGR) (setting [8]) and 9.3 ± 2.9 mM on Sec597Cys SmTGR [1] (setting [9]).
Regarding `OO` [H2O2, hydrogen peroxide], the Km turned out to be 17.3 ± 7.6 mM on wild-type TGR (SmTGR) and 52.4 ± 9.8 mM at Sec597Cys SmTGR [1] (setting [9]). Besides, at wild-type TGR (SmTGR) (pH 7.4), the Vmax stood at 4.6 ± 0.7 s⁻¹.
